Assay results published in patent publication US20230398130A1, “METHODS AND COMPOSITIONS FOR DIFFERENTIATING STEM CELLS” (Massachusetts Institute of Technology, priority 2020, published 2023).

How the values were obtained:
ISC-enriched organoids [1] = assay: Primary screen, 384-well 2.5-D organoid differentiation (ENR+CD, 6 days): carbachol-induced lysozyme secretion (LYZ.S); format: cell-based, murine; settings: primary screen; for Dose.FC.LYZ.S: FC vs plate median; for Z.LYZ.S: standard z score; for SSMD.LYZ.S: strictly standardized mean difference
Description: (§1) High-throughput screening.

ISC-enriched organoids [2] = assay: Primary screen, 384-well 2.5-D organoid differentiation (ENR+CD, 6 days): basal lysozyme secretion (LYZ.NS); format: cell-based, murine; settings: primary screen; for Dose.FC.LYZ.NS: FC vs plate median; for Z.LYZ.NS: standard z score; for SSMD.LYZ.NS: strictly standardized mean difference
Description: as §1

ISC-enriched organoids [3] = assay: Primary screen, 384-well 2.5-D organoid differentiation (ENR+CD, 6 days, Target Selective Inhibitor Library, vs whole-plate median): ATP (CellTiter-Glo 3D, CTG); settings: primary screen; for Dose.FC.CTG: FC vs plate median; for Z.CTG: standard z score; for SSMD.CTG: strictly standardized mean difference
[4] = 1st of the 4 dose lines of the treatment (dose not given)
[5] = 2nd of the 4 dose lines of the treatment (dose not given)
[6] = 3rd of the 4 dose lines of the treatment (dose not given)
[7] = 4th of the 4 dose lines of the treatment (dose not given)

Row | SMILES | Dose.FC.LYZ.S (ISC-enriched organoids [1]; Dose 0.08 uM) | Dose.FC.LYZ.S (ISC-enriched organoids [1]; Dose 0.40 uM) | Dose.FC.LYZ.S (ISC-enriched organoids [1]; Dose 2.00 uM) | Dose.FC.LYZ.S (ISC-enriched organoids [1]; Dose 10.00 uM) | Dose.FC.LYZ.NS (ISC-enriched organoids [2]; Dose 0.08 uM) | Z.LYZ.NS (ISC-enriched organoids [2]; Dose 0.08 uM) | Dose.FC.LYZ.NS (ISC-enriched organoids [2]; Dose 0.40 uM) | Z.LYZ.NS (ISC-enriched organoids [2]; Dose 0.40 uM) | Dose.FC.LYZ.NS (ISC-enriched organoids [2]; Dose 2.00 uM) | Z.LYZ.NS (ISC-enriched organoids [2]; Dose 2.00 uM) | Dose.FC.LYZ.NS (ISC-enriched organoids [2]; Dose 10.00 uM) | Z.LYZ.NS (ISC-enriched organoids [2]; Dose 10.00 uM) | Dose.FC.CTG (ISC-enriched organoids [3]; Dose 0.08 uM) | Z.CTG (ISC-enriched organoids [3]; Dose 0.08 uM) | Dose.FC.CTG (ISC-enriched organoids [3]; Dose 0.40 uM) | Z.CTG (ISC-enriched organoids [3]; Dose 0.40 uM) | Dose.FC.CTG (ISC-enriched organoids [3]; Dose 2.00 uM) | Z.CTG (ISC-enriched organoids [3]; Dose 2.00 uM) | Dose.FC.CTG (ISC-enriched organoids [3]; Dose 10.00 uM) | Z.CTG (ISC-enriched organoids [3]; Dose 10.00 uM) | further results
1 | CC(C)c1onc(-c2c(Cl)cccc2Cl)c1COc1ccc(/C=C/c2cccc(C(=O)O)c2)c(Cl)c1 [GW4064] | 0.028 log 2 fold change | 0.097 log 2 fold change | 0.000 log 2 fold change | −0.071 log 2 fold change | 0.170 log 2 fold change | 1.476 | −0.022 log 2 fold change | −0.194 | 0.022 log 2 fold change | 0.196 | −0.059 log 2 fold change | −0.516 | −0.134 log 2 fold change | −0.320 | 0.140 log 2 fold change | 0.334 | −0.145 log 2 fold change | −0.346 | −0.157 log 2 fold change | −0.375 | –
2 | O=C(O)CCc1ccc(NCc2cccc(Oc3ccccc3)c2)cc1 [GW9508] | 0.067 log 2 fold change | 0.049 log 2 fold change | 0.000 log 2 fold change | −0.045 log 2 fold change | 0.075 log 2 fold change | 0.650 | 0.019 log 2 fold change | 0.169 | −0.011 log 2 fold change | −0.092 | −0.040 log 2 fold change | −0.350 | 0.063 log 2 fold change | 0.151 | 0.174 log 2 fold change | 0.417 | −0.001 log 2 fold change | −0.003 | −0.059 log 2 fold change | −0.140 | Z.LYZ.S (ISC-enriched organoids [1]; [4]): 0.434; Z.LYZ.S (ISC-enriched organoids [1]; [5]): 0.316; Z.LYZ.S (ISC-enriched organoids [1]; [6]): 0.003; Z.LYZ.S (ISC-enriched organoids [1]; [7]): −0.289; SSMD.LYZ.S (ISC-enriched organoids [1]; [4]): 0.329; SSMD.LYZ.S (ISC-enriched organoids [1]; [5]): 0.225; SSMD.LYZ.S (ISC-enriched organoids [1]; [6]): 0.002; SSMD.LYZ.S (ISC-enriched organoids [1]; [7]): −0.176; SSMD.LYZ.NS (ISC-enriched organoids [2]; [4]): 0.536; SSMD.LYZ.NS (ISC-enriched organoids [2]; [5]): 0.122; SSMD.LYZ.NS (ISC-enriched organoids [2]; [6]): −0.064; SSMD.LYZ.NS (ISC-enriched organoids [2]; [7]): −0.358; SSMD.CTG (ISC-enriched organoids [3]; [4]): 0.128; SSMD.CTG (ISC-enriched organoids [3]; [5]): 0.384; SSMD.CTG (ISC-enriched organoids [3]; [6]): −0.003; SSMD.CTG (ISC-enriched organoids [3]; [7]): −0.134
3 | O=C(Nc1ccccc1)c1cc([N+](=O)[O-])ccc1Cl [GW9662] | 0.036 log 2 fold change | 0.080 log 2 fold change | 0.093 log 2 fold change | 0.020 log 2 fold change | 0.035 log 2 fold change | 0.305 | 0.098 log 2 fold change | 0.852 | 0.046 log 2 fold change | 0.400 | 0.030 log 2 fold change | 0.264 | 0.115 log 2 fold change | 0.274 | 0.041 log 2 fold change | 0.098 | 0.212 log 2 fold change | 0.508 | 0.133 log 2 fold change | 0.318 | Z.LYZ.S (ISC-enriched organoids [1]; [4]): 0.235; Z.LYZ.S (ISC-enriched organoids [1]; [5]): 0.520; Z.LYZ.S (ISC-enriched organoids [1]; [6]): 0.599; Z.LYZ.S (ISC-enriched organoids [1]; [7]): 0.131; SSMD.LYZ.S (ISC-enriched organoids [1]; [4]): 0.218; SSMD.LYZ.S (ISC-enriched organoids [1]; [5]): 0.534; SSMD.LYZ.S (ISC-enriched organoids [1]; [6]): 0.571; SSMD.LYZ.S (ISC-enriched organoids [1]; [7]): 0.149; SSMD.LYZ.NS (ISC-enriched organoids [2]; [4]): 0.272; SSMD.LYZ.NS (ISC-enriched organoids [2]; [5]): 0.722; SSMD.LYZ.NS (ISC-enriched organoids [2]; [6]): 0.336; SSMD.LYZ.NS (ISC-enriched organoids [2]; [7]): 0.282; SSMD.CTG (ISC-enriched organoids [3]; [4]): 0.301; SSMD.CTG (ISC-enriched organoids [3]; [5]): 0.117; SSMD.CTG (ISC-enriched organoids [3]; [6]): 0.715; SSMD.CTG (ISC-enriched organoids [3]; [7]): 0.378
